Assay [1] addresses T1, Vitamin D3 receptor (Homo sapiens) (UniProt P11473).
T1 sequence (whole entry): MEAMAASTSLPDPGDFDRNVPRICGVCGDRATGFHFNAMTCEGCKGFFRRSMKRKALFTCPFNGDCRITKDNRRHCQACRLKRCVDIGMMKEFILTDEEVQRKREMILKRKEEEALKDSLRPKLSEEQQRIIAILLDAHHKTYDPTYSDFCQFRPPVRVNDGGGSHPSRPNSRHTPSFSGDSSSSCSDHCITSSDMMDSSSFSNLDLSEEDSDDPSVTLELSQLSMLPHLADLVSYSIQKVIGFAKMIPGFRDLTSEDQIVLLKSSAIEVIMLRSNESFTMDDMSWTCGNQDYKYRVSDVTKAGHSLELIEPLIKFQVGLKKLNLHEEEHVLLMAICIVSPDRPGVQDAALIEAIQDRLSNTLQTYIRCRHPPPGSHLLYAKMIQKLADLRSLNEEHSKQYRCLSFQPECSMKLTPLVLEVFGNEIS
The note with it: HOS.
Description: Agonist activity at human VDR expressed in human HOS cells co-transfected with RXR gene assessed as osteocalcin promoter gene transactivation after 24 hrs by luciferase assay

Assay [2] deals with T2, Vitamin D3 receptor (Gallus gallus) (UniProt O42392).
T2 sequence (whole entry): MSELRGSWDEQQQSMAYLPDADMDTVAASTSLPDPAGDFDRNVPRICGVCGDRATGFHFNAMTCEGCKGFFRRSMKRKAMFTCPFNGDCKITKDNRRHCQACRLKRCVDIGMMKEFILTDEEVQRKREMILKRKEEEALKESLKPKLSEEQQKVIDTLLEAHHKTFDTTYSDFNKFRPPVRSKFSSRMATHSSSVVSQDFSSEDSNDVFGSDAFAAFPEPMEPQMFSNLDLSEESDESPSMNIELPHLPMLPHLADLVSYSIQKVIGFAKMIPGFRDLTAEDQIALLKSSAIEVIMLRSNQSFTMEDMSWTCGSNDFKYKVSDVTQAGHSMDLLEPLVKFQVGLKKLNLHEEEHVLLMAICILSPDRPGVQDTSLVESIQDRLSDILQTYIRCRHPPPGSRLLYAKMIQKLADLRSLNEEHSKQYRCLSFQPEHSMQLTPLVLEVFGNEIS
Briefly: Displacement of [26,27-methyl-3H]1alpha,25-dihydroxyvitamin D3 from chick intestinal VDR after 1 hr by liquid scintillation counting.

The source made the active and inactive calls. No cut-off for these calls is given here.

In assay [1], `CC1=C(/C=C\C2=CCC[C@@]3(C)[C@@H]2CC[C@@H]3[C@H](C)CCCC(C)(C)O)C[C@@H](O)[C@H](C)[C@@H]1O` showed an ED50 of 0.12 nM. Besides, the “relative binding affinity (RBA)” value in assay [2] was “Active”.
The corresponding values for `CCCC[C@H]1[C@H](O)CC(/C=C\C2=CCC[C@@]3(C)[C@@H]2CC[C@@H]3[C@H](C)CCCC(C)(C)O)=C(C)[C@H]1O` are 5.77 nM and “Active”.
The corresponding values for `CC1=C(/C=C\C2=CCC[C@@]3(C)[C@@H]2CC[C@@H]3[C@H](C)CCCC(C)(C)O)C[C@@H](O)[C@H](c2ccccc2)[C@@H]1O` are 0.88 nM and “Active”.
The molecule `CC1=C(/C=C\C2=CCC[C@@]3(C)[C@@H]2CC[C@@H]3[C@H](C)CCCC(C)(C)O)C[C@@H](O)[C@H](Cc2ccccc2)[C@@H]1O` showed an ED50 in assay [1] of 30.2 nM. Moreover, the “relative binding affinity (RBA)” value in assay [2] was “Active”.
For `CC1=C(/C=C\C2=CCC[C@@]3(C)[C@@H]2CC[C@@H]3[C@H](C)CCCC(C)(C)O)C[C@@H](O)[C@H](CCCO)[C@@H]1O` the same measures were 0.69 nM and “Active”.
The corresponding values for `CC1=C(/C=C\C2=CCC[C@@]3(C)[C@@H]2CC[C@@H]3[C@H](C)CCCC(C)(C)O)C[C@@H](O)[C@H](OCCCO)[C@@H]1O` are 0.95 nM and “Active”.
Take `CC1=C(/C=C\C2=CCC[C@@]3(C)[C@@H]2CC[C@@H]3[C@H](C)CCCC(C)(C)O)C[C@@H](O)C[C@@H]1O`: in assay [1] (tested as the 2H-labelled form), the ED50 stood at 0.46 nM. Further, the “relative binding affinity (RBA)” value in assay [2] (tested as the 2H-labelled form) was “Active”.
